# In patent US4870002A, “Method of prevention of oxidative injury to cells” (priority 1985, dated 1989):
# Read-outs that look alike come from different tables or passages of the source.
# Key:
# porcine RBCs = assay: Nonspecific binding of Lu-BSA to porcine RBCs (base-activated chemiluminescence); format: cell-based, pig; settings: for activation at 1490 µM / inhibition at 1490 µM: Sus scrofa; for activation at 1490 µM: read-out: Percent difference from control
# Procedure: Blood was collected from Landrace-Duroc swine from a closed herd. Pigs from this herd had previously expressed episodes of porcine stress syndrome (malignant hyperthermia) following halothane anesthesia. The blood was collected into acidic citrated dextrose solution in standard blood bags. The blood was diluted 1:10 in phosphate (0.1M) buffered saline (PBS), pH 7.4, in 10 ml aliquots, centrifuged in a clinical centrifuge, and the erythrocytes were resuspended in fresh PBS. The cells were stored at 4° C. until used in the various assays. The post-collection chronological age of the RBCs used for a particular assay is noted in the results for each assay. The cells were counted in an automated cell counter (Coulter ZBI, Coulter Electronics, Inc., Hialeah, Fla. 33010). Nonspecific binding of Lu-BSA to porcine RBCs was measured following treatment with hydrogen peroxide, pyruvate, and/or 3-amino-L-tyrosine at 4°, 37°, or 45° C. The exposure times for those agents were 15 min, 30 min, or 72 hours. The reagents were removed by centrifugation. Three binding protocols were followed: (1) 0.25 ml of 1:20 RBCs (19 days post collection) were incubated with 0.25 ml of 1 mg/ml Lu-BSA in PBS, pH 6.9, for 30 min at 37° C. and washed (Table 1); (2) 0.05 ml of packed RBCs (less than 24 hours post collection) were resuspended in 0.2 ml of the Lu-BSA solution and incubated overnight at 4° C. […] The cells in all three protocols were washed once in PBS, pH 7.4, and resuspended in PBS to final dilutions of 1:20 for (1) and 1:30 for (2) and (3). Following this preparation, 100 μl of each cell suspension were added to 500 μl of PBS, pH 7.4, in a scintillation vial. The vial was placed in the photometer and the solution was activated by the addition of 100 μl 0.1N NaOH. The settings for the photometer were as previously described for the Con A-Lu-BSA.
# [1] = system: L5178Y murine lymphosarcoma cells; assay: Growth curve after gamma irradiation (final/initial cell density); format: cell-based
# Procedure: The cell density in a mass culture of thymidine hypoxanthine methotrexate glycine/thymidine hypoxanthine glycine (THMG/THG) treated L5178Y cells was determined by Coulter counter and the cells were diluted with fresh warm F10p medium to bring the cell density for treatment to 600,000 cells/ml. Volumes of 10 ml of cell suspension were distributed into three T-25 flasks, and 0.05 ml volumes of solutions of 3-aminotyrosine, as well as a 0.05 ml of distilled water used as a control, to provide a ratio of 5 microliters per 1 ml of cell suspension (a 1:200 dilution) in each flask. In these experiments, the cells were treated with chemical under reduced lighting, but not as totally light sensitive.
# The cells were then reincubated for 10 minutes at 37° C. The flasks were then placed simultaneously in the chamber of the GammaCell 40 irradiator at room temperature. The dose rate for the Cesium-137 exposure was 121.6 rads/min. It has been determined that the temperature of water in a T-25 flask originally at 37° C. placed in the irradiation chamber decreases during an 8 min period to approximately 30° C. Flasks were removed after exposure of 0, 250 rads (2.5 Gy), 500 rads (5.0 Gy), and 1000 rads (10 Gy).
# After the irradiation, the cells were centrifuged and the supernatant discarded. The cells were resuspended in F10p medium, and again centrifuged. The washing process was repeated and the cells were resuspended in 10 ml of complete medium and counted.
# A growth curve study was performed in duplicate by initiating flasks with 60 ml of cell suspension at 20,000 cells per ml. The cells were incubated at 37° C. with continued rotation in 250 ml plastic Erlenmeyer flasks. The cell density was determined by Coulter counter on a daily basis over a 72 hour period.
# THMG/THG treated L5178Y cells were mass cultured and the cell density determined. Aliquots of the cell suspension with enough cells to give 300,000 cells per ml in 60 ml (1.8×10^7 cells) were distributed into three 50 ml centrifuge tubes, and after centrifugation, the original growth medium was discarded. The cells were resuspended in GIBCO custom formulation medium which had been prepared without phenol red. The cells were then washed one more time by centrifugation and resuspended again in 10 ml of the phenol red-free medium. These 10 ml suspensions of cells containing 1.8×10^7 cells were then transferred into three flasks already containing 50 ml of phenol red-free medium, distilled water, and either 100 nanomoles/ml or 2 micromoles/ml solutions of 3-aminotyrosine. The exposure system was treated as light sensitive (i.e., procedures were performed under gold light or reduced lighting). The cells were then incubated in the dark at 37° C. for 16 hours. Immediately prior to the end of the 16 hours, the cell density was determined by Coulter counter.
# At 16 hours, the cells were irradiated at 0, 250, 500, and 1000 rads as described above in the GammaCell irradiator at room temperature. Immediately after irradiation was completed, the cells were centrifuged, washed twice with F10p, and resuspended in 10 ml of F10p. The cell density was again determined by Coulter counter. Growth curve determinations with initial seeding at 20,000 cells per ml were performed for 72 hours as described above. Cell survival assay by soft agar colony formation was performed as described above, using 0.22% BBL agar (BBL Microbiology Systems) in place of the DIFCO agar previously employed. After 11 days incubation at 37° C., colonies were counted and cell survival was determined.
# [2] = Autoxidation of 3-amino-L-tyrosine solutions; format: physicochemical; settings: solutions yellow with age
# From the text: The binding of 3-amino-L-tyrosine to the cell membrane via its alpha amino group, and the subsequent inhibition of CL by inhibiting the binding of Lu-BSA, is unlikely. […] The subsequent washing removes loosely bound 3-amino-L-tyrosine and the addition of the Lu-BSA at pH 6.9 favors BSA binding by the Schiff base reaction. […] The yellowing of 3-amino-L-tyrosine solutions with age is evidence of the oxidation.
# [3] = 1.49 mM preincubation and pyruvate 1.33 mM
compound,measurement,setting,value
"Nc1cc(C[C@H](N)C(=O)O)ccc1O [3-aminotyrosine, 3-amino-L-tyrosine]",CL (counts/30 s),porcine RBCs; [3],964 ± 230 counts/30 s
same,Percent difference from control,porcine RBCs; [3],9%
same,Lu-BSA binding above the 37° C. control,"porcine RBCs; 1.49 mM with hydrogen peroxide 11.7 mM, 37° C.",≤ 14%
same,CL (30 s),"porcine RBCs; 1.49 mM with hydrogen peroxide 11.7 mM, 37° C., 30 min",663 ± 145 counts/30 s
same,Percent difference from control,"porcine RBCs; 1.49 mM with hydrogen peroxide 11.7 mM, 37° C., 30 min, vs 4° C. control",74%
same,CL (30 s),"porcine RBCs; 1.49 mM, 45° C., 30 min",550 ± 126 counts/30 s
same,CL (counts/30 s),"porcine RBCs; 1.49 mM, preincubated at 4° C. for 72 h, RBCs 72 hours post collection",794 ± 156 counts/30 s
same,activation at 1490 µM,"porcine RBCs; 0.5 h, 1.49 mM, 45° C., 30 min, vs 4° C. control",45%
same,activation at 1490 µM,"porcine RBCs; 72 h, 1.49 mM, preincubated at 4° C. for 72 h",-10%
same,inhibition at 1490 µM,"porcine RBCs; 1.49 mM, hydrogen peroxide 11.7 mM, 37° C., read-out: inhibition of Lu-BSA binding induced by hydrogen peroxide",51%
same,inhibition at 1490 µM,"porcine RBCs; RBCs stored at 4° C. in 1.49 mM for 72 hours, read-out: less Lu-BSA bound than RBCs stored in PBS",10%
same,"protection from the effects of pyruvate (Lu-BSA binding), in words","porcine RBCs; cells preincubated in 1.49 mM, then pyruvate 1.33 mM",protected them from the effects of pyruvate
same,Final Cell Density/Initial Cell Density,"[1]; Sixteen hour incubation, 0 rads, 2 micromoles/ml",71.4
same,Final Cell Density/Initial Cell Density,"[1]; Sixteen hour incubation, 0 rads, 100 nanomoles/ml",83.3
same,Final Cell Density/Initial Cell Density,"[1]; Sixteen hour incubation, 250 rads, 2 micromoles/ml",34.6
same,Final Cell Density/Initial Cell Density,"[1]; Sixteen hour incubation, 250 rads, 100 nanomoles/ml",50.5
same,Final Cell Density/Initial Cell Density,"[1]; Sixteen hour incubation, 500 rads, 2 micromoles/ml",6.1
same,Final Cell Density/Initial Cell Density,"[1]; Sixteen hour incubation, 500 rads, 100 nanomoles/ml",5.3
same,Final Cell Density/Initial Cell Density,"[1]; Sixteen hour incubation, 1000 rads, 2 micromoles/ml",1.1
same,Final Cell Density/Initial Cell Density,"[1]; Sixteen hour incubation, 1000 rads, 100 nanomoles/ml",1.3
same,Final Cell Density/Initial Cell Density,"[1]; Zero hour incubation, 0 rads, 2 micromoles/ml",25.0
same,Final Cell Density/Initial Cell Density,"[1]; Zero hour incubation, 0 rads, 100 nanomoles/ml",20.0
same,Final Cell Density/Initial Cell Density,"[1]; Zero hour incubation, 250 rads, 2 micromoles/ml",15.9
same,Final Cell Density/Initial Cell Density,"[1]; Zero hour incubation, 250 rads, 100 nanomoles/ml",14.1
same,Final Cell Density/Initial Cell Density,"[1]; Zero hour incubation, 500 rads, 2 micromoles/ml",7.7
same,Final Cell Density/Initial Cell Density,"[1]; Zero hour incubation, 500 rads, 100 nanomoles/ml",7.7
same,Final Cell Density/Initial Cell Density,"[1]; Zero hour incubation, 1000 rads, 2 micromoles/ml",2.2
same,Final Cell Density/Initial Cell Density,"[1]; Zero hour incubation, 1000 rads, 100 nanomoles/ml",2.2
same,"autoxidation in solution, in words",[2],"readily, autoxidizes"
